Measured values as given in PubChem BioAssay (NCI).
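48-hour exposure; five concentrations; linearly interpolated endpoints. TGI denotes the concentration required for complete inhibition of growth.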

Key:
Assay in all cases: growth of human tumour cells (NCI), 48 h
K-562 leukemia = tested on: K-562 leukemia
HS 578T breast = tested on: HS 578T breast
SF-539 CNS = tested on: SF-539 CNS
OVCAR-5 ovarian = tested on: OVCAR-5 ovarian
M14 melanoma = tested on: M14 melanoma
TK-10 renal = tested on: TK-10 renal
MOLT-4 leukemia = tested on: MOLT-4 leukemia
OVCAR-4 ovarian = tested on: OVCAR-4 ovarian
LOX IMVI melanoma = tested on: LOX IMVI melanoma
HL-60(TB) leukemia = tested on: HL-60(TB) leukemia
SNB-75 CNS = tested on: SNB-75 CNS
SF-268 CNS = tested on: SF-268 CNS
DU-145 prostate = tested on: DU-145 prostate
786-0 renal = tested on: 786-0 renal
UACC-62 melanoma = tested on: UACC-62 melanoma
HT29 colon = tested on: HT29 colon
NCI/ADR-RES ovarian = tested on: NCI/ADR-RES ovarian
SR leukemia = tested on: SR leukemia
OVCAR-8 ovarian = tested on: OVCAR-8 ovarian

Row | Structure (SMILES) | TGI (K-562 leukemia) | TGI (HS 578T breast) | TGI (SF-539 CNS) | TGI (OVCAR-5 ovarian) | TGI (M14 melanoma) | TGI (TK-10 renal) | TGI (MOLT-4 leukemia) | TGI (OVCAR-4 ovarian) | TGI (LOX IMVI melanoma) | TGI (HL-60(TB) leukemia) | TGI (SNB-75 CNS) | TGI (SF-268 CNS) | TGI (DU-145 prostate) | TGI (786-0 renal) | TGI (UACC-62 melanoma) | TGI (HT29 colon) | TGI (NCI/ADR-RES ovarian) | TGI (SR leukemia) | TGI (OVCAR-8 ovarian)
1 | CC(=O)OCC1OC(n2c(C)c(N=Nc3ccccc3)c(C)c(C#N)c2=S)C(OC(C)=O)C(OC(C)=O)C1OC(C)=O (centres undefined) | > 100 µM | 44.8 µM | > 100 µM | > 100 µM | > 100 µM | 81.8 µM | > 100 µM | > 100 µM | > 100 µM | > 100 µM | 7.03 µM | > 100 µM | > 100 µM | 22.7 µM | 33.3 µM | > 100 µM | > 100 µM | > 100 µM | 
2 | CCOC(=O)n1[nH]c(=O)n(-c2ccccc2)c1=O | > 100 µM | > 100 µM |  | > 100 µM | > 100 µM | > 100 µM | > 100 µM | > 100 µM | > 100 µM | > 100 µM | > 100 µM | > 100 µM | > 100 µM | > 100 µM | > 100 µM | > 100 µM | > 100 µM | > 100 µM | > 100 µM
3 | COC1O[C@@H]2CCN3C(=O)[C@@H](OC(=O)c4ccc([N+](=O)[O-])cc4)[C@H]1C23 (some centres undefined) | > 100 µM | > 100 µM | > 100 µM | > 100 µM | > 100 µM | > 100 µM | > 100 µM |  | > 100 µM |  | > 100 µM | > 100 µM | > 100 µM | > 100 µM | > 100 µM | > 100 µM | > 100 µM | > 100 µM | > 100 µM
4 | c1ccc(C2C3=C(CCCC3)Nc3nc4cc5ccccc5cc4n32)cc1 (centres undefined) | > 100 µM | > 100 µM | > 100 µM | > 100 µM | > 100 µM |  | > 100 µM | > 100 µM | > 100 µM | > 100 µM | > 100 µM | > 100 µM | > 100 µM | > 100 µM | > 100 µM | > 100 µM | > 100 µM | > 100 µM | > 100 µM
5 | O=C(C#CP(=O)(O)c1ccccc1)c1ccccc1 | > 100 µM | > 100 µM | > 100 µM | > 100 µM | > 100 µM | > 100 µM |  | > 100 µM | > 100 µM |  | > 100 µM | > 100 µM | > 100 µM | > 100 µM | > 100 µM | > 100 µM | > 100 µM | > 100 µM | > 100 µM
6 | Cc1cn(C2CC(O)C(Cn3cc(Cn4ncc(=O)[nH]c4=O)nn3)O2)c(=O)[nH]c1=O (centres undefined) |  | > 100 µM | > 100 µM | > 100 µM | > 100 µM | > 100 µM | > 100 µM | > 100 µM | > 100 µM | > 100 µM | > 100 µM | > 100 µM | > 100 µM | > 100 µM | > 100 µM | > 100 µM | > 100 µM | > 100 µM | > 100 µM
7 | CC(NC(=O)C(N)Cc1ccc(O)cn1)C(=O)O (centres undefined) | > 100 µM | > 100 µM | > 100 µM | > 100 µM |  | > 100 µM | > 100 µM | > 100 µM | > 100 µM | > 100 µM |  | > 100 µM | > 100 µM | > 100 µM |  | > 100 µM | > 100 µM | > 100 µM | > 100 µM
8 | O=C1CC(CC(O)C(O)C(O)CO)CC(=O)N1 (centres undefined) | > 100 µM | > 100 µM | > 100 µM | > 100 µM | > 100 µM |  | > 100 µM | > 100 µM | > 100 µM | > 100 µM | > 100 µM | > 100 µM | > 100 µM | > 100 µM |  | > 100 µM | > 100 µM | > 100 µM | > 100 µM
9 | Cc1ccc2c(=O)cc(-c3cccc4ccccc34)[nH]c2n1 | > 36.8 µM | > 91.5 µM |  | > 47.1 µM | > 100 µM |  | > 100 µM | > 85.1 µM | 9.5 µM | 0.0318 µM |  | > 32.4 µM | > 74.7 µM | > 79.2 µM | > 100 µM | 0.0658 µM | > 100 µM | > 100 µM | 0.305 µM
10 | OCC1OC(Oc2cc(O)cc(/C=C\c3ccc(O)cc3)c2)C(O)C(O)C1O (centres undefined) | > 100 µM | > 100 µM | > 100 µM | > 100 µM |  | > 100 µM | > 100 µM | > 100 µM | > 100 µM | > 100 µM | > 100 µM |  | > 100 µM | > 100 µM | > 100 µM | > 100 µM | > 100 µM | > 100 µM | > 100 µM
11 | Cc1cccc(N=Nc2c(C)nn(C(=O)CC(=O)Nc3ccccc3)c2C)c1 |  | > 100 µM | > 100 µM | > 100 µM | > 100 µM | > 100 µM | > 100 µM | > 100 µM | > 100 µM | > 100 µM | > 100 µM | > 100 µM | > 100 µM | > 100 µM | > 100 µM | > 100 µM | > 100 µM | > 100 µM | > 100 µM
12 | Oc1c2cc(Br)cc1CCc1cc(Br)cc(c1O)CC2 | > 100 µM | 73.4 µM | 58.6 µM | 65 µM | 36.7 µM | 89.9 µM | > 100 µM |  | 31.3 µM | 51.6 µM | 88.3 µM | > 100 µM | > 100 µM | > 100 µM | 46 µM | 35.9 µM | 57.2 µM | > 100 µM | > 100 µM
13 | CC1=NN(C(=O)CC(=O)Nc2ccccc2Cl)C(=O)C1N=Nc1ccc(C(=O)O)cc1 (centres undefined) | > 100 µM | > 100 µM | > 100 µM | > 100 µM | > 100 µM | > 100 µM | > 100 µM | > 100 µM | > 100 µM | > 100 µM |  | > 100 µM | > 100 µM | > 100 µM | > 100 µM | > 100 µM | > 100 µM | > 100 µM | > 100 µM
14 | CC1=C2C(=O)OCC23C=COC3(C)O1 (centres undefined) | > 100 µM | > 100 µM | 65.9 µM | > 100 µM | 85.5 µM | > 100 µM | > 100 µM | > 100 µM | > 100 µM |  | 77.3 µM | > 100 µM | > 100 µM | > 100 µM | 46.7 µM | > 100 µM | > 100 µM | > 100 µM | > 100 µM
